Experimental findings from ChEMBL document CHEMBL4130363, “Synthesis and pharmacological evaluation of benzamide derivatives as potent and selective sigma-1 protein ligands” (Eur J Med Chem, 2017) are described below.

Test [1] deals with Adenosine receptor A2a (Homo sapiens) (UniProt P29274). As to the kind of experiment: Antagonist activity at recombinant human adenosine A2A receptor assessed as inhibition of agonist-induced cAMP induction at 10 uM by HTRF assay. In kind it is functional. For orientation: Time-resolved FRET reads energy transfer from a long-lived donor to a nearby acceptor.
Sequence of Adenosine receptor A2a (Homo sapiens) (P29274 whole entry): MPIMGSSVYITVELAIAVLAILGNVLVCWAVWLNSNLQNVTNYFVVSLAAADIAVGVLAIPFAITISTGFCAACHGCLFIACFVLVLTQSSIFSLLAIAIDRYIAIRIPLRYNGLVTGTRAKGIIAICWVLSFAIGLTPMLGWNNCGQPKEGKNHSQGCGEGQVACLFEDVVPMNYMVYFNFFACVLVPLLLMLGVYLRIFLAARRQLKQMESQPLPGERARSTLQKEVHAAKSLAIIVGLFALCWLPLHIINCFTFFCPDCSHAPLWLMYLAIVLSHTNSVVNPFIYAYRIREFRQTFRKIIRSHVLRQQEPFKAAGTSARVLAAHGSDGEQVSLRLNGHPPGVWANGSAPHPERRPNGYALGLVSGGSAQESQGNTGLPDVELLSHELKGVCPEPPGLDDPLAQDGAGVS
The target of test [2] is T1, Substance-K receptor (Homo sapiens) (UniProt P21452).
T1 sequence (whole entry): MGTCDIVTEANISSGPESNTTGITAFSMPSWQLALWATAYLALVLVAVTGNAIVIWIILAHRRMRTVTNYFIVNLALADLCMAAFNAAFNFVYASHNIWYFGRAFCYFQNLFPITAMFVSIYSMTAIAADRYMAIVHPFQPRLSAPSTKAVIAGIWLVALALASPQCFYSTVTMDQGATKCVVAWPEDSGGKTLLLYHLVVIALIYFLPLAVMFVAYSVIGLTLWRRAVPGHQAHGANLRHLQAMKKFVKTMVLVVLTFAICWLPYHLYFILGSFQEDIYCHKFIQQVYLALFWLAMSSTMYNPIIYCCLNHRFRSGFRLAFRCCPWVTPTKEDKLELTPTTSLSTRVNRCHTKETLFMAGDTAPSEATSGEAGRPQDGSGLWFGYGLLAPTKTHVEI
As to the kind of experiment: Agonist activity at recombinant human NK2R assessed at 10 uM by aequorin reporter based assay relative to agonist. In kind it is functional.

The target of test [3] is Substance-P receptor (Homo sapiens) (UniProt P25103). As to the kind of experiment: Agonist activity at recombinant human NK1R at 10 uM by aequorin reporter based assay relative to agonist. In kind it is functional.
Sequence of Substance-P receptor (Homo sapiens) (P25103 whole entry): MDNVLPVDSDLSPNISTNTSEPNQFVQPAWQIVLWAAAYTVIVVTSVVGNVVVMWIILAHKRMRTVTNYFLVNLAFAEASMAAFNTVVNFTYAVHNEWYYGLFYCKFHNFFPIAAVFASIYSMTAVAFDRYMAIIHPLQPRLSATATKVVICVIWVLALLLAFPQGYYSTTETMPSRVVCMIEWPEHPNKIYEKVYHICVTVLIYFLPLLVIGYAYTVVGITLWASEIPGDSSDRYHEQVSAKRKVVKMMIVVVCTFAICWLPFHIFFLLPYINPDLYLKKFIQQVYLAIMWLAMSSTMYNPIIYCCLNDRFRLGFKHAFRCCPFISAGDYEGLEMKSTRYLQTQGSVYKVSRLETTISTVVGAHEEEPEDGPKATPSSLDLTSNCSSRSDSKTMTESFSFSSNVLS
Test [4] deals with T2, Cholecystokinin receptor type A (Homo sapiens) (UniProt P32238).
T2 sequence (whole entry): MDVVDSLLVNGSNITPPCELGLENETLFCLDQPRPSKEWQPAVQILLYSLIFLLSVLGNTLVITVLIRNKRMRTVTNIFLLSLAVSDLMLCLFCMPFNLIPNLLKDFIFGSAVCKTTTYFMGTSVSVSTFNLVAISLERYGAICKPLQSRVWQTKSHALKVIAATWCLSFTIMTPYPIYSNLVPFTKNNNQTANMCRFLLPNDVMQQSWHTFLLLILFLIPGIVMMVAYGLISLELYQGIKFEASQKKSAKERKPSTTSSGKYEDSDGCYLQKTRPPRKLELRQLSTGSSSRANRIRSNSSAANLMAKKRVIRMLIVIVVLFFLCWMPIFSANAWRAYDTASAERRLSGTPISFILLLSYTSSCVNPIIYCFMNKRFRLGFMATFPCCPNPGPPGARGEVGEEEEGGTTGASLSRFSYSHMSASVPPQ
As to the kind of experiment: Agonist activity at recombinant human […] receptor at 10 uM by aequorin reporter based assay relative to agonist. In kind it is functional.

Test [5] has as its target Histamine H1 receptor (Homo sapiens) (UniProt P35367). As to the kind of experiment: Antagonist activity at recombinant human histamine H1 receptor assessed as inhibition of agonist-induced effect at 10 uM by aequorin reporter based assay. In kind it is functional.
Test [6] has as its target T3, Alpha-1B adrenergic receptor (Homo sapiens) (UniProt P35368).
T3 sequence (whole entry): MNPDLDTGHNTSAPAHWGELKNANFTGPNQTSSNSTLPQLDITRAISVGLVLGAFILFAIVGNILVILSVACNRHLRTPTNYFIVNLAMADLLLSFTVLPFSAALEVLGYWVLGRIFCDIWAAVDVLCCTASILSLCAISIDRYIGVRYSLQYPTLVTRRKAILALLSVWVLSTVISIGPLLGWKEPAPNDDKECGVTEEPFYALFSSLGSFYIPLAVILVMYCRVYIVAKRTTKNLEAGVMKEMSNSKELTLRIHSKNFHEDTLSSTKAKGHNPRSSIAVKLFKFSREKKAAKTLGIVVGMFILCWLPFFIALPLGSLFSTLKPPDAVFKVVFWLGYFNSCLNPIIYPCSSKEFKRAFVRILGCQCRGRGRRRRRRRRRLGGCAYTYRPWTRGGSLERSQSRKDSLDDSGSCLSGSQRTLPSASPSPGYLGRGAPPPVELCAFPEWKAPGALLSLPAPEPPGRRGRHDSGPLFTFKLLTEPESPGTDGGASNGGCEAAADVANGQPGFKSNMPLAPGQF
As to the kind of experiment: Antagonist activity at recombinant human alpha-1b adrenergic receptor assessed as inhibition of agonist-induced […] reporter based assay. In kind it is functional.

Test [7] concerns the target D(2) dopamine receptor (Homo sapiens) (UniProt P14416). As to the kind of experiment: Agonist activity at recombinant human dopamine D2L receptor at 10 uM by GTPgamma[35S] binding-based assay relative to agonist. Background: GTPγS resists hydrolysis and so accumulates on activated G proteins.
Test [8] has as its target Adenosine receptor A2a (Homo sapiens) (UniProt P29274). As to the kind of experiment: Agonist activity at recombinant human adenosine A2A receptor assessed as induction of cAMP levels at 10 uM by HTRF assay relative to agonist. In kind it is functional.
The target in test [9] is Somatostatin receptor type 4 (Homo sapiens) (UniProt P31391). As to the kind of experiment: Antagonist activity at human somatostatin receptor 4 assessed as inhibition of agonist-induced effect at 10 uM by GTPgamma[35S] binding-based assay. In kind it is functional.
Sequence of Somatostatin receptor type 4 (Homo sapiens) (P31391 whole entry): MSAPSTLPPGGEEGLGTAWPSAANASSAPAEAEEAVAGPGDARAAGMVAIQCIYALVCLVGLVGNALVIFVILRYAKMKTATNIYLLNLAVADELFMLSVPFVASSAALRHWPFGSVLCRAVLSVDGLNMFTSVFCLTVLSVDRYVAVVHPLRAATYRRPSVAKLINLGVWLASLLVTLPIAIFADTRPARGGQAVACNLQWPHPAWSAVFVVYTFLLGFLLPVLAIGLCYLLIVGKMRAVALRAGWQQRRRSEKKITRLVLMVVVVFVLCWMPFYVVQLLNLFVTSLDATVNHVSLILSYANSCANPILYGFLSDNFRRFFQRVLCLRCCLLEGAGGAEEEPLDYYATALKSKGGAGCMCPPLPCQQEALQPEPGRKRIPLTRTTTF
In test [10] the target is T4, Adenosine receptor A3 (Homo sapiens) (UniProt P0DMS8).
T4 sequence (whole entry): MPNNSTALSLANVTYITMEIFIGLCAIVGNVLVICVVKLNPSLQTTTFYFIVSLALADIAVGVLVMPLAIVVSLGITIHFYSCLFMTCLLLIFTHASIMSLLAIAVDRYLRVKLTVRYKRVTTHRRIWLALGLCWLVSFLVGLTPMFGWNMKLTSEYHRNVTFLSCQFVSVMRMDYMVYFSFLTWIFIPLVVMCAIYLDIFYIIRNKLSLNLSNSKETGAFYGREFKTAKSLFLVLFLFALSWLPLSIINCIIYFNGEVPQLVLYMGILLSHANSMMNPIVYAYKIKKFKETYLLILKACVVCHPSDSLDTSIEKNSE
As to the kind of experiment: Agonist activity at recombinant human adenosine A3 receptor […] at 10 uM by HTRF assay relative to agonist. In kind it is functional. In general terms: Changes in cAMP serve as a functional read-out for many G protein-coupled receptors.

Test [11] addresses Cannabinoid receptor 1 (Homo sapiens) (UniProt P21554). As to the kind of experiment: Agonist activity at recombinant human CB1 receptor […] at 10 uM by HTRF assay relative to agonist. In kind it is functional.
The target of test [12] is T5, Endothelin-1 receptor (Homo sapiens) (UniProt P25101).
T5 sequence (whole entry): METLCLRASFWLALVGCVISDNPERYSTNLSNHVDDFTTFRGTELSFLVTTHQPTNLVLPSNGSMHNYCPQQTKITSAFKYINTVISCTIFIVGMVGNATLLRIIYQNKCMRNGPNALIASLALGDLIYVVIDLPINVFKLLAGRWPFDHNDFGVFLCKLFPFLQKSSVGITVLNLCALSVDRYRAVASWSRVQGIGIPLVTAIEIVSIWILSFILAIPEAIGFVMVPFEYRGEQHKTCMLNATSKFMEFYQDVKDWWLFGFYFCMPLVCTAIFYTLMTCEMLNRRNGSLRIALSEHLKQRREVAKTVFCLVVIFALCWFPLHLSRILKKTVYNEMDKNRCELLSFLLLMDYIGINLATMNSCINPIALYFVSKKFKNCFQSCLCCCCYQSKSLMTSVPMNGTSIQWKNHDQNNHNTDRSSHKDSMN
As to the kind of experiment: Agonist activity at recombinant human ETA receptor at 10 uM by aequorin reporter based assay relative to agonist. In kind it is functional.

Sequence of Cannabinoid receptor 1 (Homo sapiens) (P21554 whole entry): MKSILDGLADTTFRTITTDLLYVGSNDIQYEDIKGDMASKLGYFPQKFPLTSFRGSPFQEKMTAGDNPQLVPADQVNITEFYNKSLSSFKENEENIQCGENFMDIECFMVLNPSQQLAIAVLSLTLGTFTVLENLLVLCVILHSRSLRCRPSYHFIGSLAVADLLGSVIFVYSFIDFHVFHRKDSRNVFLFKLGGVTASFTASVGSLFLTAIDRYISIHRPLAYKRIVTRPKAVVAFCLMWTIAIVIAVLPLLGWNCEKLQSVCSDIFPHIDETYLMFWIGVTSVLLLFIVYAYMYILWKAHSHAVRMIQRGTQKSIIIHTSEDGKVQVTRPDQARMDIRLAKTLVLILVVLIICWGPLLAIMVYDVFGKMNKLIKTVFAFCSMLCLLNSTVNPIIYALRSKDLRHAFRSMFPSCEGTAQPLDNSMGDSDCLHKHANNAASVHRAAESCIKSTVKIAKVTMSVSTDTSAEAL
Sequence of Histamine H1 receptor (Homo sapiens) (P35367 whole entry): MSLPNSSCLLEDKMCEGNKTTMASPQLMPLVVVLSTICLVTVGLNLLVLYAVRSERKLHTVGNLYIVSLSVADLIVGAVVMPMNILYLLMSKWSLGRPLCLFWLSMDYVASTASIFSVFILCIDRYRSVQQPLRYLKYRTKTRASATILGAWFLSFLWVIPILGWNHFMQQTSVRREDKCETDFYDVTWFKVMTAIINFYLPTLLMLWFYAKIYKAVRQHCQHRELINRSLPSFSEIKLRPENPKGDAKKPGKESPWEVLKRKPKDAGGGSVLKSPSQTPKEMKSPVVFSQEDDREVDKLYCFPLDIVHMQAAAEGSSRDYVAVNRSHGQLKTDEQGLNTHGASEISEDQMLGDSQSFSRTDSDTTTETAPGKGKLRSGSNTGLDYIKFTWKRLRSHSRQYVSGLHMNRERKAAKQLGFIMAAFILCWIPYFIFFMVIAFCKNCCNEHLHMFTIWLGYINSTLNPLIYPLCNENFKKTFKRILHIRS
Sequence of D(2) dopamine receptor (Homo sapiens) (P14416 whole entry): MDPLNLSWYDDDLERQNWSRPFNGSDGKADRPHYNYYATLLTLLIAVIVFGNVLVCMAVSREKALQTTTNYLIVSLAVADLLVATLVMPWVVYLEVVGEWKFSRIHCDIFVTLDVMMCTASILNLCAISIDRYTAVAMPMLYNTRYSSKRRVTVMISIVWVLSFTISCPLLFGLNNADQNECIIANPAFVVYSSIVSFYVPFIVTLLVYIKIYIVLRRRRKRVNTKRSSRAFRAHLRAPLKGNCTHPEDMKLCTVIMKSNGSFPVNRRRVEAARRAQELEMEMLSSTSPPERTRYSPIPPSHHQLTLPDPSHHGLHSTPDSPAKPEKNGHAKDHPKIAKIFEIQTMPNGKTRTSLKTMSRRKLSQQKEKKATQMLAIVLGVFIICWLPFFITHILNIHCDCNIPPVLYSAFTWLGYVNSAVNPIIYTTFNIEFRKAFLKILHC

On to `CN(CCCNC(=O)c1cccc(Br)c1)Cc1ccccc1`, for which the inhibition (commonly the change of the read-out against control, counted positive when it falls) is -2% in test [1], 74% in test [5], 97% in test [6] and 21% in test [9]. In addition, the Activity is 1% in test [2]; 0% in test [3]; 0% in [4]; -2% in test [7]; -25% in [8]; -3% in test [10]. The Activity is -16% in test [11] and -1% in test [12].

With `CN(CCCNC(=O)c1ccc(C(F)(F)F)cc1)Cc1ccccc1`, the inhibition in test [1] is -1%; in test [5], 24%; in [6], 70%; in [9], 17%. In addition, the Activity in test [2] is 0%; in test [3], 0%; in [4] it was -2%; in test [7] it was 25%; in test [8], -22%; in test [10] it was 7%. The Activity in [11] was -12%; in [12], -1%.

As to `CCCc1ccc(C(=O)NCCCN(C)Cc2ccccc2)cc1`, the inhibition is -3% in test [1], 25% in test [5], 72% in test [6] and 31% in [9]. For the same compound, the Activity is 0% in [2]; 0% in test [3]; -1% in [4]; 4% in test [7]; -19% in test [8]; 3% in test [10]. Also, the Activity in test [11] is -16%; in test [12], -1%.

With `CN(CCNC(=O)c1ccc([N+](=O)[O-])cc1)Cc1ccccc1`, the inhibition is -5% in [1], 26% in test [5], 84% in test [6] and 30% in [9]. The Activity is 0% in test [2]; 0% in [3]; -2% in [4]; -15% in test [7]; -12% in [8]; -1% in test [10]. Also, the values for the Activity in test [11] and in test [12] were 8% and -1%, respectively.

In the case of `CN(CCNC(=O)c1ccc(C#N)cc1)Cc1ccccc1`, the inhibition is -7% in [1], 35% in [5], 89% in test [6] and 34% in test [9]. In addition, the Activity was 0% in [2]; 0% in test [3]; -2% in test [4]; -23% in test [7]; -8% in [8]; 0% in test [10]. Besides, the Activity in test [11] and in test [12] was -1% in each case.

Turning to `CN(CCCNC(=O)c1ccc(Br)cc1)Cc1ccccc1`, the inhibition in test [1] is -3%; in test [5], 28%; in [6], 81%; in test [9], 4%. Also, the Activity in [2] is 0%; in test [3] it was 0%; in test [4], -1%; in [7], -1%; in [8], -7%; in test [10], -6%. Besides, the Activity is -11% in test [11] and 1% in test [12].

Consider `CN(CCNC(=O)c1ccc(Cl)cc1)Cc1ccccc1`, for which the inhibition in test [1] is -4%; in test [5] it was 32%; in test [6], 96%; in test [9] it was 21%. Besides, the Activity in [2] is 1%; in test [3], 0%; in [4], -2%; in [7], -2%; in test [8], -22%; in test [10], -2%. The Activity in test [11] is -7%; in test [12], -1%.

Regarding `COc1cccc(C(=O)NCCCN(C)Cc2ccccc2)c1`, the inhibition is -10% in test [1], 57% in [5], 56% in test [6] and 25% in test [9]. Moreover, the Activity is 0% in [2]; 0% in test [3]; -2% in test [4]; 16% in test [7]; 5% in test [8]; -3% in test [10]. For the same compound, the Activity in test [11] was 6%; in test [12] it was 0%.

Regarding `CN(CCCNC(=O)c1ccc(Cl)cc1)CCc1ccccc1`, the inhibition is -5% in [1], 90% in test [5], 98% in [6] and -3% in test [9]. The Activity in test [2] was 0%; in test [3], 0%; in test [4], -2%; in test [7], 25%; in test [8] it was -6%; in test [10] it was -6%. For the same compound, the Activity is -3% in test [11] and -1% in [12].

For the compound `COc1ccc(C(=O)NCCCN(C)Cc2ccccc2)cc1`, the inhibition in test [1] was -7%; in test [5], 12%; in test [6], 39%; in [9] it was 25%. Besides, the Activity in [2] is 0%; in test [3] it was 0%; in test [4] it was -1%; in test [7], -14%; in test [8], -13%; in test [10], -5%. For the same compound, the Activity in [11] is 6%; in test [12] it was 0%.
